Source: US20200390783A1, “INHIBITORS OF EGFR AND METHODS OF USE THEREOF” (DANA-FARBER CANCER INSTITUTE, INC., priority 2018, published 2020)
Where two headings read alike, the source gives them in different places.

Target: EGFR T790M/L858R Ba/F3 cell line (Homo sapiens, UniProt P00533, T790M/L858R, cells depend on it)
Test: Ba/F3 cell proliferation model (MTS assay)
Format: cell-based, murine
Procedure: The EGFR mutant L858R, Del E746_A750, L858R/T790M, DeE746_A750/T790M, L858R/T790M/C797S and Del/T790M/C797S Ba/F3 cells were previously described (Zhou et al., Nature 462, (2009), 1070-1074). All cell lines were maintained in RPMI 1640 (Cellgro; Mediatech Inc., Herndon, Calif.) supplemented with 10% FBS 100 units/mL penicillin, 100 units/mL streptomycin, and 2 mM glutamine. L858R cells were maintained in ACL-4 media (Invitrogen, Carlsbad, Calif.) supplemented with 5% FBS, 100 units/mL penicillin, 100 units/mL streptomycin, and 2 mM glutamine. The EGFR I941R mutation was introduced via site directed mutagenesis using the Quick Change Site-Directed Mutagenesis kit (Stratagene; La Jolla, Calif.) according to the manufacturer's instructions. All constructs were confirmed by DNA sequencing. The constructs were shuttled into the retroviral vector JP1540 using the BD Creator™ System (BD Biosciences). Ba/F3 cells were infected with retrovirus and according to standard protocols, as described previously (Zhou 2009). Stable clones were obtained by selection in puromycin (2 μg/ml).
Growth and inhibition of growth was assessed by MTS assay and was performed according to previously established methods (Zhou 2009). The MTS assay is a colorimetric method for determining the number of viable cells that is based on the bioreduction of MTS by cells to a formazan product that is soluble in cell culture medium and can be detected spectrophotometrically. […] All experimental points were set up in six wells and all experiments were repeated at least three times. […] The curves were fitted using a non-linear regression model with a sigmoidal dose response.

[1] = absence of cetuximab, read-out: Ba/F3 cellular activity (EC50) T790M/L858R
[2] = read-out: Ba/F3 cellular activity (EC50) T790M/L858R + Cetuximab, presence of 1 μg/mL cetuximab

Sequence of EGFR T790M/L858R Ba/F3 cell line (P00533 whole entry T790M/L858R): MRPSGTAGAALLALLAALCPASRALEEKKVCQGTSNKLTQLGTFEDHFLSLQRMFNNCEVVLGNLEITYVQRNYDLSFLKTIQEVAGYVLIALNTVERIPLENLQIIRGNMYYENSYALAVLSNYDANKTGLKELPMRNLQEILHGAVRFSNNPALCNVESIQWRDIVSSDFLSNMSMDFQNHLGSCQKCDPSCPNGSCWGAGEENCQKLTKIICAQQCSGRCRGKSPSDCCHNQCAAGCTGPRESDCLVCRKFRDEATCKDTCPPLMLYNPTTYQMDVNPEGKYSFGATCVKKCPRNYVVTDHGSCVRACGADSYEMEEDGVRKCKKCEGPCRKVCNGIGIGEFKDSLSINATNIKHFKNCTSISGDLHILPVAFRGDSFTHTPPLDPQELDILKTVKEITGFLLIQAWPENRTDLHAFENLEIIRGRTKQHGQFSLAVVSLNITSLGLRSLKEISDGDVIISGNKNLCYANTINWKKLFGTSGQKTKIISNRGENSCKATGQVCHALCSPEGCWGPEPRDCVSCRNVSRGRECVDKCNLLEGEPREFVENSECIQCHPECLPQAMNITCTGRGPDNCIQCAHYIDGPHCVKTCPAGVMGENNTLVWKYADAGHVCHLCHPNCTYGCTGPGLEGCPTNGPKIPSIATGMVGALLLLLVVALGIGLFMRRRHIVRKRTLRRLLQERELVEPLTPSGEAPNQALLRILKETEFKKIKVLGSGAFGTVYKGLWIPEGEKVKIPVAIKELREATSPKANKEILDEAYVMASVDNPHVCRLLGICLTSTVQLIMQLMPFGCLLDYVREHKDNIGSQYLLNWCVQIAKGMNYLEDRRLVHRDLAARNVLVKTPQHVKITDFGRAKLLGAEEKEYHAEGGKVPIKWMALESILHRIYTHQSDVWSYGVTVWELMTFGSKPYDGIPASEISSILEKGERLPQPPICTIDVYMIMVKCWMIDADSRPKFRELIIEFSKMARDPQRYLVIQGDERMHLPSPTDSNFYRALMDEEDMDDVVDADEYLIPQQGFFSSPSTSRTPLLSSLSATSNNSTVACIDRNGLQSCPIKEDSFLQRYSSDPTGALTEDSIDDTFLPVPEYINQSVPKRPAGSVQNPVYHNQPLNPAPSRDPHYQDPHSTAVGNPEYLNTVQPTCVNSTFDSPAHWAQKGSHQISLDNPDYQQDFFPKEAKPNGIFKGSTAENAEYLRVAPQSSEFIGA

EC50 [1] | EC50 [2] | SMILES
≥ 750 nM | 500 to 750 nM | C=CC(=O)Nc1ccc2c(c1)N(Cc1ccccc1)C(=O)c1cc(-c3ccc4[nH]ccc4c3)ccc1N2 [Compound I-1]
< 250 nM | < 250 nM | O=C(CCl)Nc1ccc2c(c1)N(Cc1ccccc1)C(=O)c1cc(-c3ccc4[nH]ccc4c3)ccc1N2 [Compound I-2]
≥ 750 nM | ≥ 750 nM | C=CC(=O)Nc1ccc2c(c1)N(Cc1ccccc1)C(=O)c1cc(-c3ccc(N4CCNCC4)cc3)ccc1N2 [Compound I-3, N-(10-Benzyl-11-oxo-2-(4-(piperazin-1-yl)phenyl)-10,11-dihydro-5H-dibenzo[b,e][1,4]diazepin-8-yl)acrylamide]
≥ 750 nM | 250 to 500 nM | O=C1c2cc(Br)ccc2Nc2ccc(F)cc2N1Cc1ccccc1 [I-a, 10-Benzyl-2-bromo-8-fluoro-5,10-dihydro-11H-dibenzo[b,e][1,4]diazepin-11-one]
